Assay results as given in ChEMBL document CHEMBL1131315, “Synthesis and anticonvulsant activity of 2(3H)-benzoxazolone and 2(3H)-benzothiazolone derivatives” (J Med Chem, 1998).
The source made the active and inactive calls. The calls are words filed in the database; no cut-off is given here.

How the values were obtained:
Mus musculus [1] = test: The compound was determined for the dose (mg/kg) by rotarod test at the time of peak neurotoxic effect in mice on ip administration; assay type: functional
Rattus norvegicus [2] = test: The compound was tested per os dose of 30 mg/kg for 1 hour for rotarod toxicity; 0/4; assay type: functional
Mus musculus [3] = test: The compound was tested to inhibit 50% of induced maximal electroshock seizure in mice on ip administration; assay type: functional
Rattus norvegicus [4] = test: The compound was tested per os dose of 30 mg/kg for 1 hour for maximal electroshock test on rats; MES= 1/4; assay type: functional
Rattus norvegicus [5] = test: The compound was tested per os dose of 30 mg/kg for 0.25 hours for rotarod toxicity; 0/4; assay type: functional
Mus musculus [6] = test: Anticonvulsant activity in Maximal electroshock seizure test at 100 mg/kg i.p. in mice.; assay type: functional, organism-based; design: dose 100 mg/kg
Mus musculus [7] = test: The compound was tested for anticonvulsant activity in Maximal electroshock seizure test (MES) for 4 hr in mice(ip); active at 300 mg/kg; assay type: functional, organism-based; design: dose 300 mg/kg
Mus musculus [8] = test: The anticonvulsant activity in subcutaneous pentylenetetrazole seizure test (sc Met) for 4 hr in mice; no activity or no toxicity at 300 mg/kg; assay type: functional, organism-based; design: dose 300 mg/kg
Rattus norvegicus [9] = test: The compound was tested per os dose of 30 mg/kg for 2 hours for maximal electroshock test on rats; MES= 0/4; assay type: functional
Rattus norvegicus [10] = test: The compound was tested per os dose of 30 mg/kg for 0.5 hours for rotarod toxicity; 0/4; assay type: functional
Rattus norvegicus [11] = test: The compound was tested per os dose of 30 mg/kg for 2 hours for rotarod toxicity; 0/4; assay type: functional
[12] = Protective index value is the ratio between ED50 and TD50; assay type: functional
Rattus norvegicus [13] = test: The compound was tested per os dose of 30 mg/kg for 0.5 hours for maximal electroshock test on rats; MES= 2/4; assay type: functional
[14] = The compound was tested for time of peak effect (TPE) in hours for its toxicity in mice on ip administration.; assay type: organism-based; conditions: mouse, in vivo
[15] = The compound was tested for neurologic toxicity (rotarod) test for 4 hours in mice; active at 300 mg/kg; assay type: organism-based; design: dose 300 mg/kg; conditions: mouse, in vivo
[16] = The compound was tested for time of peak effect (TPE) in hours for its activity in mice on ip administration.; assay type: ADME, organism-based; conditions: mouse, in vivo
Rattus norvegicus [17] = test: The compound was tested per os dose of 30 mg/kg for 4 hours for maximal electroshock test on rats; MES= 0/4; assay type: functional
[18] = The compound was tested for neurologic toxicity (rotarod) test for 30 min in mice; active at 100 mg/kg; assay type: organism-based; design: dose 100 mg/kg; conditions: mouse, in vivo, 0.5 h
[19] = The compound was tested for the toxic dose on oral administration. (Value in parenthesis indicate 95% confidence limits).; assay type: ADME; conditions: rat
Rattus norvegicus [20] = test: The compound was tested per os dose of 30 mg/kg for 0.25 hours for maximal electroshock test on rats; MES= 4/4; assay type: functional
Mus musculus [21] = test: The compound was tested for anticonvulsant activity in subcutaneous pentylenetetrazole seizure test (sc Met) for 30 min in mice; active at 100 mg/kg; assay type: functional, organism-based; design: dose 100 mg/kg
Rattus norvegicus [22] = test: The compound was tested per os dose of 30 mg/kg for 4 hours for rotarod toxicity; 0/4; assay type: functional
Mus musculus [23] = test: Inhibition of s.c. pentylenetetrazole induced seizure in mice following i.p. administration.; assay type: functional
Rattus norvegicus [24] = test: The compound was tested for the effective oral dose to inhibit 50% of the anticonvulsant in rats.(Value in parenthesis indicate 95% confidence limits).; assay type: functional

For `Cn1c(=O)oc2ccccc21`, the TD50 (Mus musculus [1]) was 113 mg/kg, the “No. of animals exhibiting toxicity / Number of animals tested” value (Rattus norvegicus [2]) was 0 and the ED50 (Mus musculus [3]) was 50.2 mg/kg. For the same compound, the Protected/Tested (Rattus norvegicus [4]) was 1, the “No. of animals exhibiting toxicity / Number of animals tested” value (Rattus norvegicus [5]) was 0 and the MES (Mus musculus [6]) was “active at 300 mg/kg”. The MES (Mus musculus [7]) was “active at 300 mg/kg”, the scMet (Mus musculus [8]) was “active at 100 mg/kg” and the Protected/Tested (Rattus norvegicus [9]) was 0. The “No. of animals exhibiting toxicity / Number of animals tested” value (Rattus norvegicus [10]) was 0, the “No. of animals exhibiting toxicity / Number of animals tested” value (Rattus norvegicus [11]) was 0 and the PI [12] was 16.4. The Protected/Tested (Rattus norvegicus [13]) was 2, the Toxicity [14] was 0.25 h and the Rotarod toxicity [15] was “active at 100 mg/kg”. The Activity [16] was 0.25 h, the Protected/Tested (Rattus norvegicus [17]) was 0 and the Rotarod toxicity [18] was “active at 100 mg/kg”. The TD50 [19] was > 500 mg/kg, the Protected/Tested (Rattus norvegicus [20]) was 4 and the scMet (Mus musculus [21]) was “active at 100 mg/kg”. The “No. of animals exhibiting toxicity / Number of animals tested” value (Rattus norvegicus [22]) was 0, the ED50 (Mus musculus [23]) was 132 mg/kg and the ED50 (Rattus norvegicus [24]) was 30.6 mg/kg.
